PMC10672221, “The Plant Defensin Ppdef1 Is a Novel Topical Treatment for Onychomycosis” (Journal of Fungi, 2023)
Positions of bridges follow the written chain, without caps; N, C: chain ends. No end group written: not given here.

Assays:
C. albicans cells = test: Propidium iodide uptake in response to antifungal treatment (flow cytometry); format: cell-based, Candida albicans; conditions: 30 min; for treated cells no longer viable (PI positive): 50 µg/mL; for treated cells no longer viable (PI positive) / treated cells no longer viable / cells killed (PI positive): 30 °C, 1/2 PDB, flow cytometry; for treated cells no longer viable / cells killed (PI positive): 100 µg/mL
Description: A culture of C. albicans cells (OD600 = 0.3 in ½ PDB) was prepared. Aliquots of the culture (300 µL) were transferred to 1.5 mL tubes and treated with 3.125, 6.25, 12.5, 25, 50, or 100 µg/mL of Ppdef1, efinaconazole, ciclopirox, terbinafine, or tavaborole. Water or dimethyl sulfoxide (DMSO) was added to the untreated control samples. Propidium iodide (2 µL of 1 mg/mL stock) was also added to each sample, and the cells were incubated for 30 min at 30 °C before they were pelleted using centrifugation, resuspended in 300 µL of PBS and transferred to the wells of a 96-well plate. Cells were assessed for fluorescence using the PI channel on a FACS Canto 2 flow cytometer (BD). Cells with fluorescence of more than 185 rfu were considered positive for PI uptake.

[1] = system: T. rubrum growing on human nail fragments; test: Cell killing of T. rubrum growing on nail fragments (PrestoBlue); format: cell-based, Trichophyton rubrum
Description: Human nail fragments (~2 mm × 2 mm) were sterilized in water at 99 °C for 4 h. A single nail fragment was placed into each well of a 96-well microtiter plate along with 100 µL of sterile water. T. rubrum conidia (100 µL) were added to obtain a final concentration of 1.5 × 10^5 conidia/mL. Control wells were inoculated with water only. Plates were then incubated for 96 h at 28 °C without shaking to allow T. rubrum to colonise the nail material. After the nail fragments were colonised with T. rubrum, they were treated with Ppdef1 or efinaconazole at a final concentration of 100 or 200 µg/mL. Six replicate wells were used per treatment, and two independent replicates were performed. As efinaconazole was dissolved in ethanol, all wells treated with Ppdef1 were adjusted with ethanol to a final concentration of 1% ethanol. Plates were then incubated for 20 h at 28 °C.
After the 20 h incubation, 20 µL of PrestoBlue® (Thermo Fisher, Scoresby, Victoria, Australia) was added to each well, and the mixture was transferred to a black-wall, clear-bottom microplate. […] The reaction was allowed to proceed for 24 h before fluorescence was measured in an M5e spectrophotometer (Molecular Devices, San Jose, CA, USA) using an excitation wavelength of 560 nm and an emission wavelength of 590 nm as described in the manufacturer’s instructions (Thermo Fisher, Scoresby, Victoria, Australia).

[2] = Nail penetration assay (Franz cell nail adaptors); format: in vitro ADME, human; conditions: for maximum level of penetration on any one day: 10 days daily application, efinaconazole 10% as Jublia (maximum on day 8); for applied dose that penetrated the nails on all days, except for terbinafine on Days 7 and 9: efinaconazole 10%; for average penetration per day at Days 7-10: Ppdef1 1% (six replicates), terbinafine 1% in same vehicle (four replicates)
Description: Nail penetration assays were conducted essentially as described by Hui et al.. Human fingernail clippings (minimum size: 6.5 mm × 6.5 mm) were hydrated by placing them on folded Kimwipe tissues soaked in 3 mL of phosphate-buffered saline (PBS, pH 7.4) for 3 h at 26 °C. After hydration, nails were placed in plastic Franz cell nail adaptors (Perme Gear, Hellerton, PA, USA) with cotton wool (20 mg ± 2 mg) pre-soaked with 100 µL of phosphate-buffered saline with Tween 0.05% (PBST, pH 7.4) placed underneath the nail. Nails were sealed into the adaptors with silicone and checked for leaks by applying 10 µL of water to the top of the nail for at least 20 min (RT). Ppdef1 drug product (10 µL; 1% Ppdef1 in 50 mM acetate buffer, pH 4.0, 20% isopropanol, 20% propylene glycol), terbinafine (1% in 50 mM acetate buffer, pH 4.0, 20% isopropanol, 20% propylene glycol), or efinaconazole (formulated as Jublia (Valeant)) was applied to the top of the nail, and nails were incubated at 26 °C for 16 h in a Petri dish. A moist Kimwipe was added to the Petri dish to maintain humidity. After 16 h, the cotton wool was removed from the underside of the nail and set aside for analysis. The top of the nail was washed to collect excess test compound that had not penetrated the nail. First, a dry cotton swab was used to collect any excess liquid on the nail. A second swab soaked in 100 µL of water was then wiped over the top of the nail. An additional dry swab was used to collect any remaining liquid. A fresh piece of cotton wool soaked in 100 µL PBST was added to the underside of the nail. The nail was incubated at 26 °C for 1 h to allow for rehydration. Additional test solution (10 µL) was applied, and the process was repeated daily for 10 days. To quantify the amount of test item that had penetrated the nail, cotton wool removed from the underside of the nail was washed twice with 500 mM CaCl2 (200 µL) and then once with 0.1% TFA (200 µL). The cotton wool was incubated with the wash solution for 10 min at 26 °C for each wash. Cotton wool washes were pooled and analysed using RP-HPLC (300SB-C8 analytical column attached to a 1200 series HPLC (Agilent, Santa Clara, CA, USA)). Ethics approval for use of the nail clippings was granted by the La Trobe University Human Ethics Committee for the collection of nail clippings (approval number: HEC18414).

[3] = systemic (oral), after a 12 week treatment; cited from earlier work
From the text: These infections are hard to treat, can be painful, and have a cosmetic impact on the patient. Current topical treatments for onychomycosis require daily or weekly application for 48 weeks, and even these exhaustive treatment regimens produce low complete cure rates. Until 2014, […]® and its generic equivalents, with the active ingredient ciclopirox, were the only prescription strength topical onychom ... || Several systemic (oral) treatments have been approved for the treatment of onychomycosis. […] The FDA reported in its review of efinaconazole (Center for Drug Evaluation and Research; […] Fungicidal activity in the presence of keratin is hypothesised to correlate with the clinical efficacy for the topical onychomycosis products, ciclopirox and efinaconazole. The complete cu ...

[4] = terbinafine 1%, four replicates
[5] = 10 µL daily, 26 °C, RP-HPLC, average of six replicates
[6] = 10 µL daily, 26 °C, RP-HPLC, six replicates

| maximum level of penetration on any one day [2, 4] [%] | applied dose that penetrated the nails on all days, except for terbinafine on Days 7 and 9 ([2]; terbinafine 1%) | Compound | treated cells no longer viable (PI positive) (C. albicans cells) | treated cells no longer viable / cells killed (PI positive) (C. albicans cells) | average penetration per day at Days 7-10 ([2]; 10 µL daily, 26 °C, RP-HPLC) [%] | cure rate [3] [%] | other results |
| --- | --- | --- | --- | --- | --- | --- | --- |
| 2.2 | less than 5% | C=C1CCN([C@H](C)[C@](O)(Cn2cncn2)c2ccc(F)cc2F)CC1 [efinaconazole] | no significant cell death |  |  |  | cell death (PI uptake) (C. albicans cells; any of the tested concentrations (3.125-100 µg/mL)): did not induce a significant cell death; hyphal biomass killed relative to the untreated control ([1]; 200 µg/mL, keratin as sole nutrient source, 1% ethanol, 28 °C, PrestoBlue): little impact; decrease in viable fungi ([1]; either concentration (100 or 200 µg/mL)): did not cause a significant decrease; average penetration per day on Days 1-7, 9, and 10 ([2]; efinaconazole 10% (Jublia), four replicates): approximately 0.5% |
| 7.0 | less than 5% | CN(C/C=C/C#CC(C)(C)C)Cc1cccc2ccccc12 [terbinafine] | no significant cell death | less than 25% | 3.8 | 38 | applied dose that penetrated the nails on Days 7 and 9 ([2]; terbinafine 1%): less than 10%; penetration observed on most days ([2]; terbinafine 1%, daily for 10 days, four replicates): approximately 3.0% |
|  |  | AKVCTKPSKFFKGLCGTDGACTTACRKEGLHSGYCQLKGFLNSVCVCRKHC (disulfide 4-51, 15-35, 21-45, 25-47) [Ppdef1] |  |  | 26.1 |  | applied dose that penetrated the nail, first day ([2]; 10 µL applied daily, 26 °C, 16 h, cotton wool under nail, RP-HPLC, 1% Ppdef1 in 50 mM acetate pH 4.0, 20% isopropanol, 20% propylene glycol, average of six replicates): 13.3%; applied dose that penetrated the nail, Day 2 [2, 5]: 3.2%; applied dose that penetrated the nail, Day 3 [2, 5]: 2.0%; average penetration per day over Days 4, 5, and 6 [2, 6]: 13.1%; penetration by Day 7 [2, 6]: approximately 26%; applied dose that penetrated the nail on Days 7-10 ([2]; Ppdef1 1%): Greater than 20%; amount passed through the nail ([2]; daily application of 10 µL of a 1% solution for 10 days): more than 150 µg |
|  |  | Cc1cc(C2CCCCC2)n(O)c(=O)c1 [ciclopirox] | ~ 20% | 58.7% |  |  |  |
|  |  | OB1OCc2cc(F)ccc21 [tavaborole] | no significant cell death | less than 25% |  |  |  |
|  |  | CCC(C)n1ncn(-c2ccc(N3CCN(c4ccc(OCC5COC(Cn6cncn6)(c6ccc(Cl)cc6Cl)O5)cc4)CC3)cc2)c1=O (stereo not shown) [itraconazole] |  |  |  | 14 |  |
